This is an account of results in patent publication US6761694B2, “Methods for measuring retinal damage” (Allergan, Inc., priority 2001, dated 2004).

This assay has as its system retina exposed to laser (secondary retinal damage). Kind of assay: Retinal thickness analysis (Retinal Thickness Analyzer) after laser photocoagulation in a patient with AMD. It is filed as in vivo, human. The source says:
In order to calculate the slope of retinal thickness, the thickness of the retina must be measured. In practicing the methods of the invention, it is preferred that the retinal thickness be measured in situ as compared to histologically. Retinal thickness may be measured using publicly available devices generally configured to image optical cross-sections of the retina, and to digitally process the cross-sections to result in a measurement of retinal thickness. One such device used to practice the methods of the invention is the Retinal Thickness Analyzer ([…] Technology, Ltd., […] Zion, Israel) as disclosed in U.S. Pat. No. 6,267,477, entitled, “Three dimensional imaging apparatus and a method for use thereof”. Another device that may be used to measure retinal thickness in the methods of the invention is the Optical Coherence Tomography (OCT) Scanner (Humphrey Instruments, Inc., San Leandro, Calif.) and as described in U.S. Pat. No. 5,491,524, entitled, “Optical coherence tomography corneal mapping apparatus”. Another device that may be used to measure retinal thickness in practicing the methods of the invention is the Heidelberg Retina Tomograph (HRT; Heidelberg Engineering GmbH, Heidelberg, Germany) and as described in U.S. Pat. No. 5,170,276, entitled, “Apparatus for imaging an object”. The images obtained by such devices can then be examined, and the slope of retinal thickness measured. The slope of retinal thickness may be calculated as a ratio by measuring the change in retinal thickness as a function of distance between two or more points of the retina near the lesion site. The human retina is approximately 200-250 μm thick. Using the devices described above, it is possible to optically cross-section the retina in 20 μm increments. If the retinal thickness changes by 200 μm over a distance of 20 μm, the corresponding slope of retinal thickness would be 10. Similarly, if the retinal thickness changes 200 μm over a distance of 2 mm, the corresponding slope would be 0.1. In the foregoing examples, a slope of 10 indicates the retinal damage is less than the retinal damage where the slope of damage is 0.1. Persons skilled in the art will appreciate that the slope of retinal thickness may be calculated over any number of distances, and that the smallest distance is only limited by the resolution of the devices used to practice the methods of the invention. A person presents with blurred vision in their right eye with particular distorted images near the middle of their visual field. An ophthalmologist conducts an eye exam. […] The ophthalmologist detects the presence of an abnormal amount of soft drusen. A diagnosis of age-related macular degeneration (AMD) is made. […]

As for `CC12CC3CC(C)(C1)CC(N)(C3)C2` [memantine], the “secondary damage by retinal thickness analysis” value (memantine 0.25% w/v topically prior to laser treatment, after the surgery) is given as “little secondary damage”. Further, under “memantine 0.25% w/v topically, continued laser treatments”, the “visual impairment on additional laser treatments” value is listed as “without significant visual impairment”. In addition, the “change in retinal thickness” value (over a distance of about 40 μm, memantine 0.25% w/v topically prior to laser treatment, twenty-one days after laser surgery) was determined as 200 μm. Further, the “slope of damage (slope of retinal thickness)” value (person with AMD, memantine 0.25% w/v topically prior to laser photocoagulation, scan twenty-one days after laser surgery) is reported as “approximately 8”.
